Results taken from patent US10640495B2, “Heterocycle derivatives having TrkA inhibitory activity” (Shionogi & Co., Ltd., priority 2015, dated 2020).
Like-named read-outs stand apart in the source and are kept apart here.

What was measured:
human TrkA = human TrkA (Homo sapiens (Human), UniProt P04629); assay: Human TrkA inhibition assay (Test Example 2); type: biochemical
Outline: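 Mobility-shift readout of phosphorylated versus unphosphorylated fluorescent peptide gave conversion ratio, normalized to DMSO and no-enzyme wells; IC50 by logistic fit of 10- or 15-point 3-fold dilutions. Conditions: 1 nmol/L enzyme, 15 min compound preincubation, then 500 μmol/L ATP plus 1.5 μmol/L peptide, 120 min, 37 °C.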

[1] = Clearance test, intravenous administration in SD rats (Test Example 7); type: in vivo; conditions: rat, plasma, intravenous administration 0.5 mg/kg or 1 μmol/kg, read-out: Total Clearance (CLtot)
Description: Materials and Methods for Experiments • (1) Experimental animals: SD rats were used. • (2) Rearing condition: SD rats were allowed free access to solid feed and sterilized tap water. • (3) Setting of dosage and grouping: Intravenous administration was performed with the predetermined dosage. Grouping was set as below. (Dosage is changed per compound) Intravenous administration 0.5 mg/kg or 1 μmol/kg (n=2) • (4) Preparation of administration solutions: Administration was performed after solubilization by using dimethylacetamide/propylene glycol=1/1 or dimethyl sulfoxide/propylene glycol=1/1 as the solvent. • (5) Routes of administration: Intravenous administration was performed from caudal vein by syringes with needle. • (6) Evaluation items: Blood was collected serially and concentration of a compound of the present invention in plasma was measured by LC/MS/MS. • (7) Statistical analysis: About transition of concentration of a compound of the present invention in plasma, Total Clearance (CLtot) of a compound of the present invention was calculated by non-linear least-squares method program, WinNonlin (a registered trademark).

hERG channel (IKr) = hERG channel (IKr) (Homo sapiens (Human), UniProt Q12809); assay: hERG test, whole cell patch clamp IKr in CHO cells (Test Example 3); type: cell-based; conditions: pH 7.4, at of test compound (so in the source), CHO cells expressing hERG channel, read-out: % inhibition of tail peak current (IKr)
hERG channel (IKr), sequence (Q12809 whole entry): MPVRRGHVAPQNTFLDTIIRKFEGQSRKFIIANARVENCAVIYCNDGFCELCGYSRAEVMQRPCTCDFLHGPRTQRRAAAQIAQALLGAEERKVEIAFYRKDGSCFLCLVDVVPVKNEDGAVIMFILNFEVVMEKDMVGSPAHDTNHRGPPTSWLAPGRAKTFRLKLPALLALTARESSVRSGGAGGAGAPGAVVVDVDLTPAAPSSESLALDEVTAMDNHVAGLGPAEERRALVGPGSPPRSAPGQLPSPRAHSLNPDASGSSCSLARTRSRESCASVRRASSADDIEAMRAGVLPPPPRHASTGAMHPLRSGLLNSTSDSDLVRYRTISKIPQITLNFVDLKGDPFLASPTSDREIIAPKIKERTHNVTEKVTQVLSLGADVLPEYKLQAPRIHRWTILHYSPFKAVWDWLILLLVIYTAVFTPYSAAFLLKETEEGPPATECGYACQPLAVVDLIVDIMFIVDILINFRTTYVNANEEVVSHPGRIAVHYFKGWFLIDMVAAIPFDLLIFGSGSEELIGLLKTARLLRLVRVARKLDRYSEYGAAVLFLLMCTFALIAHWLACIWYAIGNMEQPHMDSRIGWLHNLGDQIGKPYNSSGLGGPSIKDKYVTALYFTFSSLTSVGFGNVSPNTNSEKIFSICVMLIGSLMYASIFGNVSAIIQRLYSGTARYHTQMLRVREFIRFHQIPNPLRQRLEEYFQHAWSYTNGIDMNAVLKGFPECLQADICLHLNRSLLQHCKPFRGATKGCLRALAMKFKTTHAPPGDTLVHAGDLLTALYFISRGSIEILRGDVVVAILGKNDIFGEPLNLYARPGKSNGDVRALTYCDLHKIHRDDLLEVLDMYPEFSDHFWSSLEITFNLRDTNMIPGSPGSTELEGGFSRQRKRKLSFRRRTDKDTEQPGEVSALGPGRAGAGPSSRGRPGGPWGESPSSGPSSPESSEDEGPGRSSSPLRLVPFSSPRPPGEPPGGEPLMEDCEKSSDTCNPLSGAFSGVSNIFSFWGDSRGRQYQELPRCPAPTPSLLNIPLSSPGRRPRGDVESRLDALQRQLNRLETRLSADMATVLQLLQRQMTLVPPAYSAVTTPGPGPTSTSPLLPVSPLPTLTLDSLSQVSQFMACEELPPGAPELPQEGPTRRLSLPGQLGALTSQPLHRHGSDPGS
Description: For the purpose of assessing risk of an electrocardiogram QT interval prolongation of the compound of the present invention, effects of the compound of the present invention on delayed rectifier K^+ current (IKr), which plays an important role in the ventricular repolarization process, was studied using CHO cells expressing human ether-a-go-go related gene (hERG) channel.
After a cell was retained at a membrane potential of −80 mV by whole cell patch clamp method using an automated patch clamp system (QPatch; Sophion Bioscience A/S) and gave a leak potential of −50 mV, IKr induced by depolarization pulse stimulation at +20 mV for 2 seconds, and further, repolarization pulse stimulation at −50 mV for 2 seconds, was recorded. A vehicle, which is the 0.1-0.3% dimethyle sulfoxide solution in extracellular solution (NaCl: 145 mmol/L, KCl: 4 mmol/L, CaCl2: 2 mmol/L, MgCl2: 1 mmol/L, glucose: 10 mmol/L, HEPES (4-(2-hydroxyethyl)-1-piperazineethanesulfonic acid): 10 mmol/L, pH7.4), or the compound of the present invention had been dissolved at an objective concentration in the extracellular solution is applied to the cell at room temperature for 7 minutes or more. From the recording IKr, an absolute value of the tail peak current was measured based on the current value at the resting membrane potential using analysis software (QPatch assay software; Sophion Bioscience A/S). Further, the % inhibition of tail peak current for the compound of the present invention relative to the tail peak current after application of the vehicle is calculated to assess influence of the compound of the present invention on IKr.
(Result) % inhibition was shown at […] of test compound.

[2] = human TrkA 1 nmol/L, ATP 500 μmol/L, 120 min at 37° C., read-out: IC50 values (TrkA phosphorylation inhibition)
[3] = Table 153, human TrkA inhibition, read-out: IC50
[4] = Table 152, human TrkA inhibition, read-out: IC50_nM
[5] = Table 157, human TrkA inhibition, read-out: IC50

human TrkA, sequence (P04629 440-796): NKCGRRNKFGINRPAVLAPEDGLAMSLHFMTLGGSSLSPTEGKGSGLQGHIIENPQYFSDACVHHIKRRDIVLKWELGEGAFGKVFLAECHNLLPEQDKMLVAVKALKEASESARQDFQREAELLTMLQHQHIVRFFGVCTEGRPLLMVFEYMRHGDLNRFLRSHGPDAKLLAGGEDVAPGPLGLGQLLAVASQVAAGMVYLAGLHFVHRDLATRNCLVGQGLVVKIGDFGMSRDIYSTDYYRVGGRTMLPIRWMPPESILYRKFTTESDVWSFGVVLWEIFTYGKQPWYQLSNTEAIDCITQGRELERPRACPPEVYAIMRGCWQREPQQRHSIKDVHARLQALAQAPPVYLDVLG

COCC[C@@H]1C[C@@H](NC(=O)Nc2c(C)c(-c3cnc4c(c3)nnn4C)nn2-c2ccccc2)[C@H](c2ccnc(F)c2)O1 [Compound I-275] gave an IC50 (human TrkA; [2]) of 3 nM and a clearance [1] of 3.73 mL/min/kg.
With COCCN1C[C@@H](NC(=O)Nc2c(C)c(-c3cnc(OC)nc3)nn2-c2ccccc2)[C@H](c2cnc(F)c(F)c2)O1 (racemic) [Compound I-57] the IC50 (human TrkA; [2]) was 2.2 nM and the clearance [1] was 7.93 mL/min/kg.
In the case of COCCN1C[C@@H](NC(=O)Nc2c(C)c(-c3cnc4c(c3)nnn4C)nn2-c2ccccc2)[C@H](c2ccnc(F)c2)O1 (racemic) [Compound I-90], the IC50 (human TrkA; [3]) is reported as < 100 nM and the clearance [1] is reported as 6.35 mL/min/kg.
With COCCN1C[C@@H](NC(=O)Nc2c(C)c(-c3cnc4c(cnn4C)c3)nn2-c2ccccc2)[C@H](c2ccnc(F)c2)O1 (racemic) [Compound I-40] the IC50 (human TrkA; [2]) was 1.6 nM and the clearance [1] was 2.82 mL/min/kg.
For CCN1CCC(NC(=O)c2ccc(-c3nn(-c4ccccc4)c(NC(=O)N[C@@H]4CC(CCOC)O[C@H]4c4ccccc4)c3C)cc2)CC1 (some centres unmarked) [Compound I-19], the IC50 (human TrkA; [4]) was < 100 nM and the clearance [1] was 15.6 mL/min/kg.
In the case of COCCC1C[C@@H](NC(=O)Nc2c(C)c(-c3cnc(C)nc3)nn2-c2ccccc2)[C@H](c2ccccc2)O1 (some centres unmarked) [Compound I-12], the inhibition at 5 mol/L (hERG channel (IKr)) is reported as 17.6%, the IC50 (human TrkA; [4]) is reported as < 100 nM and the clearance [1] is reported as 13.6 mL/min/kg.
In the case of COCCN1C[C@@H](NC(=O)Nc2c(C)c(-c3cnn(C)c3)nn2-c2ccccc2)[C@H](c2ccccc2)O1 (racemic) [Compound I-4], the inhibition at 5 mol/L (hERG channel (IKr)) is reported as 14.1% and the IC50 (human TrkA; [4]) is reported as < 100 nM.
In the case of COCC[C@@H]1O[C@@H](NC(=O)Nc2c(C)c(-c3cnn(C)c3)nn2-c2ccccc2)[C@H](c2ccccc2)O1 [Compound I-7], the inhibition at 5 mol/L (hERG channel (IKr)) is reported as 4.2% and the IC50 (human TrkA; [2]) is reported as 6.1 nM.
For COCCC1C[C@@H](NC(=O)Nc2c(C)c(-c3cnn(C)c3)nn2-c2ccccc2)[C@H](c2ccccc2)O1 (some centres unmarked) [Compound I-6], the inhibition at 5 mol/L (hERG channel (IKr)) was 8.9% and the IC50 (human TrkA; [4]) was < 100 nM.
In the case of CCN1C[C@@H](NC(=O)Nc2c(C)c(OCCCN3CCCC3)nn2-c2ccccc2)[C@H](c2ccc(F)c(F)c2)O1 (racemic) [Compound I-661], the IC50 (human TrkA; [5]) is reported as < 100 nM.
For COCCN1C[C@@H](NC(=O)Nc2c(C)c(-c3ccc(OCc4ccccc4)nc3)nn2-c2ccccc2)[C@H](c2ccc(F)c(F)c2)O1 (racemic) [Compound I-27], the IC50 (human TrkA; [4]) was < 100 nM.
With COCCN1C[C@@H](NC(=O)Nc2c(C)c(-c3cnc(N4CC[C@H](N(C)C)C4)nc3)nn2-c2ccccc2)[C@H](c2ccnc(F)c2)O1 [Compound I-586] the IC50 (human TrkA; [5]) was < 100 nM.
For COCCN1C[C@@H](NC(=O)Nc2c(C)c(-c3cnc(N4CC[C@H](OC)C4)nc3)nn2-c2ccccc2)[C@H](c2ccnc(F)c2)O1 [Compound I-584], the IC50 (human TrkA; [5]) was < 100 nM.
With CCOc1ncc(-c2nn(-c3ccccc3)c(NC(=O)N[C@@H]3CN(CCOC)O[C@H]3c3cnc(F)c(F)c3)c2C)cn1 (racemic) [Compound I-68] the IC50 (human TrkA; [3]) was < 100 nM.
With CNC(=O)c1cc(-c2nn(-c3ccccc3)c(NC(=O)N[C@@H]3CN(CCOC)O[C@H]3c3cccc(F)c3)c2C)cn(C)c1=O (racemic) [Compound I-143] the IC50 (human TrkA; [3]) was < 100 nM.
For COCCN1C[C@@H](NC(=O)Nc2c(C)c(-c3cnc(N4CC(OC(=O)c5ccccc5)C4)nc3)nn2-c2ccccc2)[C@H](c2cc(F)nc(F)c2)O1 (racemic) [Compound I-286], the IC50 (human TrkA; Table 154, human TrkA inhibition, read-out: IC50) was < 100 nM.
In the case of COCCN1C[C@@H](NC(=O)Nc2c(C)c(-c3cnn(C)c3)nn2-c2ccccc2)[C@H](c2cc(F)nc(F)c2)O1 (racemic) [Compound I-217], the IC50 (human TrkA; [2]) is reported as 4.6 nM.
For COCCN1C[C@@H](NC(=O)Nc2c(C)c(N3CC(c4ccc(F)cc4)C3)nn2-c2ccccc2)[C@H](c2cnc(F)c(F)c2)O1 (racemic) [Compound I-336], the IC50 (human TrkA; Table 155, human TrkA inhibition, read-out: IC50) was < 100 nM.
With COCCC1C[C@@H](NC(=O)Nc2c(C)c(-c3cnn(C)c3)nn2-c2ccccc2)[C@H](c2ccccc2)O1 (some centres unmarked) [Compound I-16] the IC50 (human TrkA; [4]) was < 100 nM.
